# Results: paper PMC11467779, “New anti-ovarian cancer quinolone derivatives acting by modulating microRNA processing machinery” (RSC Medicinal Chemistry, 2024)
# “Also recorded” adds a separate entry of the source.
# Key:
# A549 (lung carcinoma) = assay: Proliferation of A549 cells (trypan blue count); type: cell-based, human; settings: 30 μM, 72 hours
# Experimental: (§1) A2780 and SKOV-3 cells were treated with 50 μM of 33 for 72 h before RNA and protein extraction and expression analyses. A2780 and A2780 CIS were treated with 33 (30 μM) and/or cisplatin (1 μM, Sigma-Aldrich) for 48 hours while MCF-7, A549 and HCT-116 were treated with 33 (30 μM) for 72 hours. Total cell number and viability have been assessed using Trypan Blue Solution (Thermo Fisher Scientific) and Countess™ 3 Automated Cell Counter (Thermo Fisher Scientific).
# OVCA433 = assay: Antiproliferative effect against OVCA433 (GI50); type: cell-based; settings: Homo sapiens, 72 hours of treatment, cell count
# Experimental: SKOV-3, A2780 and A2780 CIS were cultured and maintained, as previously described,[50] at 37 °C in RPMI 1640 medium (Euroclone) supplemented with 10% fetal bovine serum (FBS; Euroclone), L-glutamine and penicillin/streptomycin (SIGMA-ALDRICH). OVCA433, HEK-293T, HeLa, HCCLM3, SK-Hep-1, MCF-7, A549 and HCT-116 cells were maintained in DMEM medium (Euroclone) containing 10% FBS (Euroclone), L-glutamine and penicillin/streptomycin (SIGMA-ALDRICH). Wi-38 cells were cultured in DMEM medium (Euroclone) supplemented with 10% FBS (Euroclone), L-glutamine and penicillin/streptomycin (SIGMA-ALDRICH), and 1% non-essential amino acids (NEAA; Euroclone). The cultures were maintained in a constant temperature incubator at 37 °C with 5% CO2. […] Once cell adhesion had been promoted, the compounds were added to the culture medium. After 72 hours of treatment, the cells were counted, and the data analyzed by linear regression. Each experiment was carried out three times in triplicate and three separate cell counts were made for each sample. […] Afterwards, the concentration range was narrowed to the relative value obtained in the first evaluation in order to obtain an accurate value.
# HCT-116 (colon cancer) = assay: Proliferation of HCT-116 cells (trypan blue count); type: cell-based, human; settings: 30 μM, 72 hours
# Experimental: as §1
# KO TRBP SK-Hep-1 cells = assay: Antiproliferative effect on KO TRBP SK-Hep-1 cells (CCK-8); type: cell-based, human; settings: 48 hours
# Experimental: HCCLM3 and SK-Hep-1 cells were seeded into 96-well plates at a density of 10 000 cells per well and allowed to adhere overnight. Subsequently, the cells were treated with the following substances: 0.1% DMSO as the negative control, various concentrations of the test compounds, and 125 μM enoxacin as the positive control. After 48 h of incubation, the original culture medium was removed, and the cells were washed twice with PBS. Then, 100 μL of DMEM culture medium containing 10% CCK-8 (Bimake, USA) was added to each well. The plates were incubated for 30 minutes at 37 °C. To determine the […], measurements were taken at a wavelength of 450 nm using a Varioskan from Thermo Fisher Scientific.
# MCF-7 (breast cancer) = assay: Proliferation of MCF-7 cells (trypan blue count); type: cell-based, human; settings: 30 μM, 72 hours
# Experimental: as §1
# TRBP = target: T1, TRBP (Homo sapiens, UniProt Q15633); assay: Surface plasmon resonance (SPR) assay on TRBP; type: binding; settings: versus enoxacin
# T1 sequence (Q15633 1-366): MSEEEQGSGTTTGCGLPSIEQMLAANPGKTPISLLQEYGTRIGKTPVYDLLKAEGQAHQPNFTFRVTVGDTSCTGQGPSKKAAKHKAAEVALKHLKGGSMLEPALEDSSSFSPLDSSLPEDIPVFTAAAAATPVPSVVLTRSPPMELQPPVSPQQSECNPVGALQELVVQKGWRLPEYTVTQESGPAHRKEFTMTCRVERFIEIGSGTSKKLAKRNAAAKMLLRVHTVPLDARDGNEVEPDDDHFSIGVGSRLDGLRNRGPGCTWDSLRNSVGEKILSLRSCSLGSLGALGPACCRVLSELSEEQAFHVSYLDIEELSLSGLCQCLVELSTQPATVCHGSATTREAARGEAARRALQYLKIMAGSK
# Experimental: Following the manufacturer's instructions, the BIAcore Sensor Chip (CM5) underwent initial activation using a mixture of NHS and EDC. Subsequently, recombinant human TRBP proteins at a concentration of 20 μg mL^−1 (in 10 mM sodium acetate, pH 4.0) were injected over the CM5 chip. After reaching a coupling level of 12 000 RU, a 1 M ethanolamine hydrochloride was injected to block the chip, preventing nonspecific binding. All the compounds were diluted in HBS-EP buffer (10 mM HEPES, pH 7.4, 3 mM EDTA, 150 mM NaCl, and 0.005% surfactant P-20) with 1% DMSO. Samples were injected at a rate of 10 μL min^−1 for 120 seconds, followed by a dissociation phase of 90 seconds. After each cycle, a 50% DMSO solution was used to regenerate the chip surface and restore the sensorgram baseline. Binding analysis was performed using BIA evaluation version 3.2 software, determining the […] (KD).
# distinct OC cell lines = assay: Anti-OC activity against distinct cell lines (GI50 range); type: cell-based; settings: Homo sapiens; range over the OC cell lines tested
# Experimental: Once cell adhesion had been promoted, the compounds were added to the culture medium. After 72 hours of treatment, the cells were counted, and the data analyzed by linear regression. Each experiment was carried out three times in triplicate and three separate cell counts were made for each sample.
# Afterwards, the concentration range was narrowed to the relative value obtained in the first evaluation in order to obtain an accurate value.
# [1] = test system: cisplatin-resistant A2780 cells (A2780 CIS); assay: Viable cells of cisplatin-resistant A2780 (A2780 CIS) treated with 33, cisplatin or both; type: cell-based, human; settings: 48 hours
# Experimental: as §1
smiles,measurement,setting,value
"O=C(O)c1cn(C2CC2)c2cc(N3CCc4ccccc4C3)c(F)cc2c1=O [Compound 33, 1-Cyclopropyl-7-(3,4-dihydroisoquinolin-2(1H)-yl)-6-fluoro-4-oxo-1,4-dihydroquinoline-3-carboxylic acid]",effect on A549 cell proliferation,A549 (lung carcinoma),significant inhibitory effect on cell proliferation
same,GI50,OVCA433,31 ± 6.75 µM
same,effect on HCT-116 cell proliferation,HCT-116 (colon cancer),significant inhibitory effect on cell proliferation
same,antiproliferative effect on KO TRBP SK-Hep-1 cells,KO TRBP SK-Hep-1 cells; 30 μM,no antiproliferative effect
same,viability of KO TRBP SK-Hep-1 cells,KO TRBP SK-Hep-1 cells; 50 μM,not affecting
same,effect on MCF-7 cell proliferation,MCF-7 (breast cancer),significant inhibitory effect on cell proliferation
same,"binding affinity for TRBP, fold stronger than enoxacin",TRBP,approximately 40 fold
same,GI50,distinct OC cell lines,13.5 to 31 µM
same,sensitivity of A2780 CIS and A2780 to 33 alone,[1]; 30 μM,equal sensitivity
same,effect of 33 in combination with cisplatin on A2780 CIS,[1]; 33 30 μM + cisplatin 1 μM,synergistic effect; also recorded: sensitized A2780 CIS to cisplatin
